Results: US12466821B2 (Novartis AG, priority 2018, dated 2025)

Tests used:
[1] = biological target: human HSV DNA polymerase UL30 (Human herpesvirus 1 (strain 17) (HHV-1) (Human herpes simplex virus 1), UniProt P04293); test: HSV polymerase biochemical assay (molecular beacon-based)
In short: (§1)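 Full-length wild-type N-terminal MBP-fusion polymerases from sf9 cells were used at 100 pM (CMV) or 625 pM (HSV) in Tris pH 7.5, 10 mM MgCl2, and preincubated with inhibitor for 30 min at RT. Reactions with 1.25 uM each dNTP, 200 nM primer and 100 nM molecular beacon ran 60 min (CMV) or 20 min (HSV) at RT. Fluorescence was read at 480/535 nm and IC50 derived.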

[2] = system: Luciferase-encoding HCMV, AD169 strain; test: CMV Luciferase assay (cellular herpesvirus replication); assay type: cell-based; settings: Human betaherpesvirus 5, AD169, read-out: CMV-Luc Cellular EC50
In short: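 Reporter HCMV AD169 with luciferase driven by late pp28 promoter, so signal requires viral DNA replication; NN-NHDF fibroblasts in 2% FBS medium, compound (0.0159–50 or 0.00318–10 μM, 0.5% DMSO) added 1 h before infection at MOI 1. Luminescence read 72 hpi; EC50 from 4-parameter fit of control-normalized %.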

[3] = biological target: human CMV DNA polymerase UL54 (Human cytomegalovirus (strain AD169) (HHV-5) (Human herpesvirus 5), UniProt P08546); test: CMV polymerase biochemical assay (molecular beacon-based)
In short: as §1

SMILES	IC50 [1]	EC50 [2]	IC50 [3]
N#Cc1ccc(CNC(=O)c2ccc3n(c2=O)CCN(CC2(S(=O)(=O)C4(CO)CC4)CC2)C3=O)cc1 [Example 11]	24.3 nM	26.7 nM	0.4 nM
CC1(CS(=O)(=O)C2(CN3CCn4c(ccc(C(=O)NCc5ccc(C#N)c(F)c5)c4=O)C3=O)CC2)CC1 [Example 109, N-(4-cyano-3-fluorobenzyl)-2-((1-(((1-methylcyclopropyl)methyl)sulfonyl)cyclopropyl)methyl)-1,6-dioxo-1,3,4,6-tetrahydro-2H-pyrido[1,2-a]pyrazine-7-carboxamide]	121 nM	112 nM	3.2 nM
CC(C)(C)S(=O)(=O)C1(CN2CCn3c(ccc(C(=O)NCc4ccc(C#N)c(F)c4)c3=O)C2=O)CC1 [Example 26]	45.5 nM	8.9 nM	0.6 nM
CNc1cc(CNC(=O)c2ccc3n(c2=O)CCN(CC2(S(=O)(=O)C4CC4)CC2)C3=O)ccc1C#N [Example 212, N-(4-cyano-3-(methylamino)benzyl)-2-((1-(cyclopropylsulfonyl)cyclopropyl)methyl)-1,6-dioxo-1,3,4,6-tetrahydro-2H-pyrido[1,2-a]pyrazine-7-carboxamide]	51.4 nM	315 nM	0.6 nM
CC(CCO)S(=O)(=O)C1(CN2CCn3c(ccc(C(=O)NCc4ccc(C#N)cc4)c3=O)C2=O)CC1 (stereo not drawn) [Example 5, N-(4-cyanobenzyl)-2-((1-((4-hydroxybutan-2-yl)sulfonyl)cyclopropyl)methyl)-1,6-dioxo-2,3,4,6-tetrahydro-1H-pyrido[1,2-a]pyrazine-7-carboxamide]	105 nM	470 nM	2.2 nM
CC1CN(CCN(C)S(C)(=O)=O)C(=O)c2ccc(C(=O)NCc3ccc(Cl)cc3)c(=O)n21 (stereo not drawn) [Example 91, N-(4-chlorobenzyl)-4-methyl-2-(2-(N-methylmethylsulfonamido)ethyl)-1,6-dioxo-2,3,4,6-tetrahydro-1H-pyrido[1,2-a]pyrazine-7-carboxamide]	2250 nM	2480 nM	186 nM
O=C(NCc1ccc(Cl)cc1)c1ccc2n(c1=O)CCN(CCO)C2=O [Example 116, N-(4-chlorobenzyl)-2-(2-hydroxyethyl)-1,6-dioxo-2,3,4,6-tetrahydro-1H-pyrido[1,2-a]pyrazine-7-carboxamide]	14100 nM	24700 nM	2140 nM
O=C(NCc1ccc(Cl)nc1)c1ccc2n(c1=O)CCN(CC1(S(=O)(=O)C3(CO)CC3)CC1)C2=O [Example 50-2]	72.8 nM	122 nM	6.4 nM
CC(C)(C)NS(=O)(=O)C1(CN2CCn3c(ccc(C(=O)NCc4ccc(Cl)cc4)c3=O)C2=O)CC1 [Example 72-1, 2-((1-(N-(tert-butyl)sulfamoyl)cyclopropyl)methyl)-N-(4-chlorobenzyl)-1,6-dioxo-2,3,4,6-tetrahydro-1H-pyrido[1,2-a]pyrazine-7-carboxamide]	23.5 nM	29.2 nM	0.6 nM
N#Cc1ccc(CNC(=O)c2ccc3n(c2=O)CCN(CC2(S(=O)(=O)C4CCNC4)CC2)C3=O)cc1F (stereo not drawn) [Example 81-1]	152 nM	1070 nM	3.8 nM
CC(C)(CN)S(=O)(=O)C1(CN2CCn3c(ccc(C(=O)NCc4ccc(C#N)cc4)c3=O)C2=O)CC1 [Example 184]	60.3 nM	31.6 nM	3.9 nM
O=C(NCc1ccc(Cl)cc1)c1ccc2n(c1=O)CCN(CC1(S(=O)(=O)CC3(C(F)(F)F)CC3)CC1)C2=O [Example 104-1]	185 nM	639 nM	18.6 nM
Cc1cc(C(=O)NCc2ccc(F)cc2)c(=O)n2c1C(=O)N(CC1(S(C)(=O)=O)CC1)CC2 [Example 86-1]	287 nM	1520 nM	11.2 nM
CS(=O)(=O)C1(CN2CCn3c(ccc(C(=O)NCc4ccc(Br)cc4)c3=O)C2=O)CC1 [Example 37]	111 nM	62.3 nM	1.3 nM
CS(=N)(=O)C1(CN2CCn3c(ccc(C(=O)NCc4ccc(Cl)cc4)c3=O)C2=O)CC1 (stereo not drawn) [Example 95, N-(4-chlorobenzyl)-2-((1-(S-methylsulfonimidoyl)cyclopropyl)methyl)-1,6-dioxo-2,3,4,6-tetrahydro-1H-pyrido[1,2-a]pyrazine-7-carboxamide]	722 nM	263 nM	16.6 nM
CN(CCN1CCn2c(c(CCCO)cc(C(=O)NCc3ccc(Cl)cc3)c2=O)C1=O)S(C)(=O)=O [Example 157, N-(4-chlorobenzyl)-9-(3-hydroxypropyl)-2-(2-(N-methylmethylsulfonamido)ethyl)-1,6-dioxo-1,3,4,6-tetrahydro-2H-pyrido[1,2-a]pyrazine-7-carboxamide]	1800 nM	7720 nM	223 nM
CS(=O)(=O)CCCN1CCn2c(c(C(F)F)cc(C(=O)NCc3ccc(Cl)cc3)c2=O)C1=O [Example 145]	6820 nM	30200 nM	1410 nM

SMILES	IC50 [1]	EC50 [2]	IC50 [3]
CN(CCN1CCn2c(c(CF)cc(C(=O)NCc3ccc(Cl)cc3)c2=O)C1=O)S(C)(=O)=O [Example 140, N-(4-chlorobenzyl)-9-(fluoromethyl)-2-(2-(N-methylmethylsulfonamido)ethyl)-1,6-dioxo-1,3,4,6-tetrahydro-2H-pyrido[1,2-a]pyrazine-7-carboxamide]	4260 nM	2220 nM	242 nM
N#Cc1ccc(CNC(=O)c2ccc3n(c2=O)CCN(CCS(=O)(=O)C2CC2)C3=O)cc1F [Example 195]	649 nM	2610 nM	67.1 nM
Cc1cc(C(=O)NCc2ccc(C#N)c(F)c2)c(=O)n2c1C(=O)N(CC1(S(C)(=O)=O)CC1)CC2 [Example 86-2]	276 nM	226 nM	4.6 nM
COC(=O)N(C)CCN1CCn2c(ccc(C(=O)NCc3ccc(Cl)cc3)c2=O)C1=O [Example 61-1]	10800 nM	5000 nM	740 nM
CC(C)(CO)S(=O)(=O)C1(CN2CCn3c(ccc(C(=O)NCc4ccc(Cl)cc4)c3=O)C2=O)CC1 [Example 180, N-(4-chlorobenzyl)-2-((1-((1-hydroxy-2-methylpropan-2-yl)sulfonyl)cyclopropyl)methyl)-1,6-dioxo-1,3,4,6-tetrahydro-2H-pyrido[1,2-a]pyrazine-7-carboxamide]	22.7 nM	6.2 nM	0.2 nM
O=C(NCc1ccc(Cl)cc1)c1ccc2n(c1=O)CCN(C1CCS(=O)(=O)C1)C2=O (stereo not drawn) [Example 53-1]	4440 nM	11200 nM	729 nM
N#Cc1ccc(CNC(=O)c2ccc3n(c2=O)CCN(CC2(S(=O)(=O)[C@@H]4CC4(F)F)CC2)C3=O)cc1Cl (single isomer, unassigned) [Example 102-2]	162 nM	85.2 nM	1.5 nM
CS(=O)(=O)C1(CN2CCn3c(ccc(C(=O)NCc4ccc(C#N)c(F)c4)c3=O)C2=O)CC1 [Example 39]	105 nM	102 nM	3.5 nM
O=C(NCc1ccc(Cl)cc1)c1ccc2n(c1=O)CCN(CC1(NS(=O)(=O)C3CC3)CC1)C2=O [Example 200]	2560 nM	6770 nM	232 nM
N#Cc1ccc(CNC(=O)c2ccc3n(c2=O)CCN(CC2(S(=O)(=O)N4CCC4)CC2)C3=O)cc1 [Example 88-2]	73.5 nM	39.5 nM	3.2 nM
Cc1cc(C(=O)NCc2ccc(Cl)cc2)c(=O)n2c1C(=O)N(CCN(C)S(C)(=O)=O)CC2 [Example 148, N-(4-chlorobenzyl)-9-methyl-2-(2-(N-methylmethylsulfonamido)ethyl)-1,6-dioxo-1,3,4,6-tetrahydro-2H-pyrido[1,2-a]pyrazine-7-carboxamide]	1510 nM	1660 nM	181 nM
C[S@+]([O-])C1(CN2CCn3c(ccc(C(=O)NCc4ccc(C#N)cc4)c3=O)C2=O)CC1 [Example 68-3]	9190 nM	7560 nM	198 nM
CN1CCC(S(=O)(=O)C2(CN3CCn4c(ccc(C(=O)NCc5ccc(Cl)cc5)c4=O)C3=O)CC2)C1 (stereo not drawn) [Example 80-2, N-(4-chlorobenzyl)-2-((1-((1-methylpyrrolidin-3-yl)sulfonyl)cyclopropyl)methyl)-1,6-dioxo-2,3,4,6-tetrahydro-1H-pyrido[1,2-a]pyrazine-7-carboxamide]	177 nM	247 nM	9.7 nM
N#Cc1ccc(CNC(=O)c2ccc3n(c2=O)CCN(CC2(S(=O)(=O)C4COC4)CC2)C3=O)cc1F [Example 29]	63.5 nM	86.4 nM	1.8 nM
N#Cc1ccc(CNC(=O)c2ccc3n(c2=O)CCN(CCS(=O)(=O)C2CC2)C3=O)cc1 [Example 194]	855 nM	4220 nM	103 nM
CN(C)S(=O)(=O)CCN1CCn2c(ccc(C(=O)NCc3ccc(Cl)cc3)c2=O)C1=O [Example 71, N-(4-chlorobenzyl)-2-(2-(N,N-dimethylsulfamoyl)ethyl)-1,6-dioxo-2,3,4,6-tetrahydro-1H-pyrido[1,2-a]pyrazine-7-carboxamide]	2780 nM	3050 nM	347 nM
CC1(S(=O)(=O)C2(CN3CCn4c(ccc(C(=O)NCc5ccc(C#N)cc5)c4=O)C3=O)CC2)CC1 [Example 94-1]	33.2 nM	13.3 nM	0.6 nM
